What was measured:
RpBgl8 [1] = biological target: T1, RpBgl8 (Reticulitermes perilucifugus, UniProt A0A7G5VX36); test: pNPG hydrolysis with added glucose; type: biochemical
T1 construct: forward primer encodes MSALKF

RpBgl8 [2] = biological target: T2, RpBgl8 (Reticulitermes perilucifugus, UniProt A0A7G5VX36, F124W); test: pNPG hydrolysis with added glucose; type: biochemical; conditions: 5 mM pNPG, phosphate buffer pH 7.0, 37 °C, reference of the reduction (no glucose or wild type) not told
T2 construct: forward primer encodes MSALKF
T2 sequence (A0A7G5VX36 entry or part of it F124W): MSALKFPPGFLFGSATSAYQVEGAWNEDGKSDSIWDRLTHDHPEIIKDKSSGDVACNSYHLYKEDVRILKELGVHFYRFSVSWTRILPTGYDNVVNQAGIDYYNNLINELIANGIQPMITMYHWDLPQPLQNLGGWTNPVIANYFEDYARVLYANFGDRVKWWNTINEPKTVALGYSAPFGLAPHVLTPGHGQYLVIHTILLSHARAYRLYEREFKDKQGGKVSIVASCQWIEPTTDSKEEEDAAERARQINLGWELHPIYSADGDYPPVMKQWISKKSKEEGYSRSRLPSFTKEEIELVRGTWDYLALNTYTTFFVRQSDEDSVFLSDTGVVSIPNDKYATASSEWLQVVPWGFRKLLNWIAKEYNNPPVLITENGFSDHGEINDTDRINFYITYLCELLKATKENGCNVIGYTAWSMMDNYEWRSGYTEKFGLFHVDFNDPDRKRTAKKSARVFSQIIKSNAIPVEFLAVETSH

T1 sequence (A0A7G5VX36 entry or part of it): as the sequence (A0A7G5VX36 entry or part of it F124W) above, with W124F counted along it

SMILES: OC[C@H]1OC(O)[C@H](O)[C@@H](O)[C@@H]1O (some centres unmarked) [glucose]
- activity at 4 M (RpBgl8 [1]): 82%
- % reduction of activity at 4.0 M glucose (RpBgl8 [2]): 54.2%
